Assay results from patent publication EP0227593A1, “Use of chelating agents” (THE HOSPITAL FOR SICK CHILDREN, priority 1985, dated 1987).

Tested on: patient's PB blast cells
Test: ALL blast colony assay
Type: cell-based
Details: Homo sapiens
Protocol: ALL Blast Colony Assay: The assay we used is a modification of previously described methods. T-cell depletion: Post-Ficoll mononuclear BM cells were incubated with neuraminidase sensitized sheep erthrocytes (SRBC) at 4°C for 2 hours, followed by gradient centrifugation. This procedure was repeated twice. Cells at the interface contained less than 0.5 % T-cells as assessed by AET sensitized SRBC rosette formation and using anti-Leu-4 and anti-Leu-5 monoclonal anti-T-cell antibodies (Becton Dickinson, CA). T-lymphocytes were obtained by recovery of rosetted cells from the pellet following lysis with Tris-buffered ammonium chloride (Sigma, St. Louis, MO). Feeder Cells: Post-Ficoll normal donors' PB cells were depleted of adherent cells by incubation on plastic Petri dishes with 10 % fetal calf serum for 90 min. at 37°C. […]
Cell Culture Procedure: 2 x 10⁵ T-depleted cells were incubated with 40 % RPMI-methylcellulose, 20 % PHA-LCM, 10 % FCS, irradiated feeder cells (10⁵/dish), 16.6 % RPMI in 35 mm Petri dishes. […] Colonies were counted at day 4. […] For control, 2 x 10⁵ irradiated feeder cells were cultured in the same assay system in each experiment to exclude their potential for colony formation Immunocytochemical Method: The cell surface antigens of air dried smears were detected using monoclonal antibodies and intestinal alkaline phosphatase, as previously described. […]

CC(=O)N(O)CCCCCNC(=O)CCC(=O)N(O)CCCCCNC(=O)CCC(=O)N(O)CCCCCN [DFO, desferioxamine methanesulfonate]
inhibition at 2.15 µM (2.15 µM DFO, read-out: reduction in blast colonies): 70%
minimal effective concentration (patient's PB blast cells, read-out: DFO concentrations with significant decline in blast colonies): > 1.25 µM
